Data reported in patent publication US20240114940A1, “SACCHARIDE COMPOSITIONS HAVING SUCROSE-LIKE CHARACTERISTICS AND RELATED METHODS” (priority 2021, published 2024).

Key:
Format in all cases: physicochemical
[1] = Heating of saccharide solutions in an open system (observation, ion-exchange chromatography)
Protocol: The following steps were performed to observe the impact of heat and pH on xylo-oligosaccharides: • 1. Four saccharide solutions comprising xylo-oligosaccharides of primarily degree of polymerization (DP) 2-6 (XOS) were created by dissolving saccharides in water, some solutions including an acidity regulator. The four solutions were: • a. XOS in water, pH 7 • b. XOS in water, pH 7 • c. XOS in water and lemon juice, pH 2 • d. XOS in water and baking soda, pH 9 • 2. The four solutions were heated, and the resulting products analyzed. For the four solutions: • a. XOS in water at pH 7 was heated to 110° C. (FIG. 1A). The solution was yellow when dissolved in water, and sticky, dissolving around 60° C. The solution formed soft, sticky threads at 110° C. […] XOS in water at pH 7 was heated to 177° C. (FIG. 1B). The solution got very dark at 177° C. and smelled burnt. The solution began darkening in color around 120° C., with the darkest color formation beginning at 150° C. The solution formed a hard crack consistency at 177° C. When water was added, the hard crack consistency re-dissolved slowly. • c. XOS in water and lemon juice at pH 2 was heated to 177° C. (FIG. 1C). This solution behaved the same as solution (b). • d. […]
The following steps were performed to observe the impact of heat and pH on cello-oligosaccharide: • 1. […] The four solutions were heated, and the resulting products analyzed. […]

[2] = Breakdown products by GCMS after Maillard reaction in the presence of Histidine; conditions: 160° C.
Protocol: Controls were prepared addition of 1 mL of pH 7 buffer to the amino acids. The samples were rapidly heated to 160° C. and held at this temperature for 10 min. Samples were rapidly cooled afterwards, and absorbance at 500 nm was measured for each reaction mixture. Volatiles were analysed using gas chromatography mass spectrometry (GCMS) analysis. An Agilent Technologies 5975B Inert XL MSD gas chromatography, single quadruple mass spectrometer was used for analysis of volatiles. Samples were added to separate GCMS headspace vials and weighed. 0.03 g of 0.01% 3-heptanone in water was added and the vial was sealed for GCMS solid phase micro extraction (SPME) analysis. Samples were analysed in a randomized order. Samples were incubated and agitated at 250 RPM, at 60° C. for 15 min prior to SPME analysis of volatiles. The SPME fibre (50/30 DVB/CAR/PDMS, 23 Ga) extracted for 10 min, then thermally desorbed at 250° C. for 5 min. A 30 m×0.25 mm×0.25 μm HP-5MS column was used (Phenomenex, UK). Oven temperature settings: 31° C.-5 min, 5° C./min to 150° C., 30° C./min to 240° C. Inlet settings: 250° C., pressure 10.4 psi, flow 11.2 mL/min, split ratio 7:1. MS operated in full scan mode from 40 to 400 m/z with a scan time of 0.2s. The peak area of the aroma compounds was compared to the peak of the internal standard 3-heptanone and corrected for the weight of the sample.
The concentration of the different classes of Maillard reaction breakdown products is presented in Tables 9B-E. The same data as Tables 9B-E is also presented in FIG. 27. Concentrations are in parts per billion of the difference non-enzymatic breakdown products for the different compositions at 160° C. analysed by GCMS.

[3] = Non-enzymatic breakdown products in confectionery mixtures (milk, butter, saccharides); conditions: final confectionery mixture

OC[C@H]1O[C@@](CO)(O[C@H]2O[C@H](CO)[C@@H](O)[C@H](O)[C@H]2O)[C@@H](O)[C@@H]1O [Sucrose]
degradation after heating ([1]; 177° C. at pH 7 and pH 4, open system): degrades
degradation after heating ([1]; 177° C. at pH 10, open system): does not degrade
2-Butanone concentration ([2]; Carbonyls/ketones): 1.44 ppb
2-Propanone, 1-hydroxy- concentration ([2]; Carbonyls/ketones): 14.57 ppb
Diacetyl (2,3-Butanedione) concentration ([2]; Carbonyls/ketones): 1.62 ppb
Furan, 2-methyl- concentration ([2]; Furans): 0 ppb
Furfural concentration ([2]; Furans): 0.03 ppb
Pyrazine, 2,5-diethyl- concentration ([2]; Pyrazines): 0.48 ppb
Pyrazine, 2,5-dimethyl- concentration ([2]; Pyrazines): 175.23 ppb
Pyrazine, 2-ethyl-5-methyl- concentration ([2]; Pyrazines): 34.95 ppb
Pyrazine, ethyl- concentration ([2]; Pyrazines): 0.14 ppb
Pyrazine, methyl- concentration ([2]; Pyrazines): 0 ppb
Concentration of 3-methyl-3-(2-oxopropylamino)butan-2-one [3]: 0.00 ppb
Concentration of Acetic acid [3]: 0.01 ppb
Concentration of Benzaldehyde [3]: 0.13 ppb
Concentration of Furfural [3]: 0.01 ppb
Concentration of Isovaleraldehyde [3]: 0.17 ppb
